Here are results for 29 compounds from US20040147739A1, “Novel anti-infectives” (priority 2003, published 2004).

Structures are written as SMILES. pIC50: −log10 of the molar value.

Usually pIC50 stands for the negative decadic logarithm of the IC50, by convention in mol/L. Low readings indicate a high IC50, high ones a low IC50.

The first test deals with T1, HCV NS5B (Hepatitis C virus genotype 1b, UniProt P26663).
T1 construct: The NS5B protein (591 amino acids, 65 kDa) of HCV
T1 sequence (P26663 2420-3010): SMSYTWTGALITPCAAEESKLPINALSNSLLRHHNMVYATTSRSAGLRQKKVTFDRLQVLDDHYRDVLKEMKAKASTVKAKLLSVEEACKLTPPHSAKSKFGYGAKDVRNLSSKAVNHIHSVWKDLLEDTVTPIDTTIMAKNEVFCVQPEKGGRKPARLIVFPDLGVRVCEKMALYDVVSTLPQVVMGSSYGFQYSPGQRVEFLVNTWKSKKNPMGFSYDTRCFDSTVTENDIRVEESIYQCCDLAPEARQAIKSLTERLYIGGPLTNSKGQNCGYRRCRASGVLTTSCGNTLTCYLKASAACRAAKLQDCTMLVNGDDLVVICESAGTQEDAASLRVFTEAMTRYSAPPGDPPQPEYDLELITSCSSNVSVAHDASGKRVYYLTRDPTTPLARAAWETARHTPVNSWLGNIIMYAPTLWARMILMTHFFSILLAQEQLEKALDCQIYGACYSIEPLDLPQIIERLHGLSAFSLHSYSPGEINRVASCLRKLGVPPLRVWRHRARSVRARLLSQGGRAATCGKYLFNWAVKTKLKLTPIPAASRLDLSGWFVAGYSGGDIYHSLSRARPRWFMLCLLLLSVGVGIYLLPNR
Kind of test: biochemical.
Conditions: not given
The procedure: The activity of the inventive compounds as inhibitors of HCV activity may be measured by any of the suitable methods known to those skilled in the art, including in vivo and in vitro assays. For example, the HCV NS5B inhibitory activity of the compounds of Formulas I, II and III was determined using standard assay procedures described in Behrens et al., EMBO J. 15:12-22 (1996), Lohmann et al., Virology 249:108-118 (1998) and Ranjith-Kumar et al., J. Virology 75:8615-8623 (2001).
The HCV NS5B inhibitory activity of the compounds of Formulas I, II m and IV was determined using standard procedures well known to those skilled in the art and described in, for example Behrens et al., EMBO J. 15:12-22 (1996), Lohmann et al., Virology 249:108-118 (1998) and Ranjith-Kumar et al., J. Virology 75:8615-8623 (2001).
Take `O=c1c(C2=NS(=O)(=O)c3ccccc3N2)c(O)c2ccccc2n1CCc1ccccc1` [Example 1]: the pIC50 was < 5.00.
Take `N#Cc1ccccc1Cn1c(=O)c(C2=Nc3ccccc3S(=O)(=O)N2)c(O)c2ccccc21` [Example 2, 3-(1,1-Dioxo-1,2-dihydrobenzo[1,2,4]thiadiazin-3-yl)-4-hydroxy-1-(2-cyanobenzyl)-1H-quinolin-2-one]: the pIC50 was < 5.00.
`O=c1c(C2=NS(=O)(=O)c3ccccc3N2)c(O)c2ccccc2n1CCCc1ccccc1` [Example 3]: the pIC50 was < 5.00.
On the same count and under the same terms, the result for `COc1ccc(C(=O)Nc2ccc3c(c2)c(O)c(C2=NS(=O)(=O)c4ccccc4N2)c(=O)n3CCC(C)C)cc1` [Example 37, N-[3-(1,1-Dioxo-1,4-dihydrobenzo[1,2,4]thiadiazin-3-yl)-4-hydroxy-1-(3-methylbutyl)-2-oxo-1,2dihydroquinolin-6-yl]4-methoxybenzamide] reads < 5.00.
Same read-out and setting: with `CCOC(=O)c1ccc2c(c1)c(O)c(C1=NS(=O)(=O)c3ccccc3N1)c(=O)n2CCC(C)C` [Example 95, 3-(1, i-Dioxo-1,4-dihydrobenzo[1,2,4]thiadiazin-3-yl)-4-hydroxy-1-(3-methylbutyl)-2-oxo-1,2-dihydroquinoline-6-carboxylic acid ethyl ester] the figure was < 5.00.
Still for that read-out and setting: the result for `COc1ccc(CCNC(=O)c2ccc3c(c2)S(=O)(=O)N=C(c2c(O)c4ccccc4n(CCC4CC4)c2=O)N3)cc1` [Example 102, 3-[1-(2-Cyclopropylethyl)-4-hydroxy-2-oxo-1,2-dihydroquinolin-3-yl]-1,1-dioxo-1,4 dihydroenzo[1,2,4]thiadiazine-7-carboxylic acid [2-(4-methoxyphenyl)ethyl]amide] reads < 5.00.
Turning to `NC(=O)CCCn1c(=O)c(C2=Nc3ccccc3S(=O)(=O)N2)c(O)c2ccccc21` [Example 170, 4-[3-(1,1-Dioxo-1,2-dihydrobenzo[1,2,4]thiadiazin-3-yl)-4-hydroxy-2-oxoquinolin-1-yl]butyramide], the pIC50 is < 5.00.
The same measure, in the same setting: the result for `CC(C)CCn1c(=O)c(C2=Nc3ccccc3S(=O)(=O)N2)c(O)c2ccc(C(=O)O)cc21` [Example 171, 3-(1,1-Dioxo-1,2-dihydrobenzo[1,2,4]thiadiazin-3-yl)-4-hydroxy-1-(3-methylbutyl)-2-oxo-1,2-dihydro-quinoline-7-carboxylic acid] reads < 5.00; that for `CC(C)CCn1c(=O)c(C2=Nc3ccccc3S(=O)(=O)N2)c(O)c2ccc(Br)cc21` [Example 173, 7-bromo-3-(1,1-dioxo-1,2-dihydrobenzo[1,2,4]thiadiazin-3-yl)-4-hydroxy-1-(3-methylbutyl)-1H-quinolin-2-one], < 5.00; that for `CC(C)CCn1c(=O)c(C2=NS(=O)(=O)c3cc(I)ccc3N2)c(O)c2ccccc21` [Example 181, 4-Hydroxy-3-(7-iodo-1,1-dioxo-1,4-dihydro-1-benzo[1,2,4]thiadiazin-3-yl)-1-(3-methylbutyl)-1H-quinolin-2-one], < 5.00.
Take `CCOC(=O)CCCn1c(=O)c(C2=NS(=O)(=O)c3ccccc3N2)c(O)c2ccccc21` [Example 182, 4-[3-(1,1-Dioxo-1,4-dihydro-1-benzo[1,2,4]thiadiazin-3-yl)-4-hydroxy-2-oxo-2H-quinolin-1-yl]-butyric acid ethyl ester]: the pIC50 is < 5.00.
For `O=C(O)CCCn1c(=O)c(C2=Nc3ccccc3S(=O)(=O)N2)c(O)c2ccccc21` [Example 183, 4-[3-(1,1-Dioxo-1,4-dihydro-1-benzo[1,2,4]thiadiazin-3-yl)-4-hydroxy-2-oxo-2H-quinolin-1-yl]-butyric acid], the pIC50 is < 5.00.
Same read-out and setting: the result for `CC(C)CCn1c(=O)c(C2=NS(=O)(=O)c3ccccc3N2)c(O)c2cc(I)ccc21` [Example 185, 3-(1,1-Dioxo-1,4-dihydro-1-benzo[1,2,4]thiadiazin-3-yl)-4-hydroxy-6-iodo-1-(3-methylbutyl)-1H-quinolin-2-one] reads < 5.00; that for `CC(C)CCc1cccc2c(O)c(C3=NS(=O)(=O)c4ccccc4N3)c(=O)[nH]c12` [Example 186, 3-(1,1-Dioxo-1,4-dihydro-1-benzo[1,2,4]thiadiazin-3-yl)-4-hydroxy-8-(3-methylbutyl)-1H-quinolin-2-one], < 5.00; that for `CC(C)CCn1c(=O)c(C2=NS(=O)(=O)c3ccccc3N2)c(O)c2c(C(=O)O)cccc21` [Example 188, 3-(1,1-Dioxo-1,4-dihydro-1-benzo[1,2,4]thiadiazin-3-yl)-4-hydroxy-1-(3-methylbutyl)-2-oxo-1,2-dihydro-quinoline-5-carboxylic acid], < 5.00.
Turning to `CN(C)CCn1c(=O)c(C2=Nc3ccccc3S(=O)(=O)N2)c(O)c2ccccc21` [Example 190, 1-(2-Dimethylamino-ethyl)-3-(1,1-dioxo-1,4-dihydro-1-benzo[1,2,4]thiadiazin-3-yl)-4-hydroxy-1H-quinolin-2-one], the pIC50 is < 5.00.
For `O=c1c(C2=NS(=O)(=O)c3ccccc3N2)c(O)c2ccccc2n1CCO` [Example 193, 3-(1,1-Dioxo-1,4-dihydro-1-benzo[1,2,4]thiadiazin-3-yl)-4-hydroxy-1-(2-hydroxyethyl)-1H-quinolin-2-one], the pIC50 is < 5.00.
Still for that read-out and setting: the result for `Cc1ccc(F)cc1Cn1c(=O)c(C2=NS(=O)(=O)c3ccccc3N2)c(O)c2ccccc21` [Example 195, 3-(1,1-Dioxo-1,4-dihydro-1-benzo[1,2,4]thiadiazin-3-yl)-1-(5-fluoro-2-methyl-benzyl)4-hydroxy-1H-quinolin-2-one] reads < 5.00.
As for `O=c1c(C2=Nc3ccccc3S(=O)(=O)N2)c(O)c2ccccc2n1Cc1ccccc1[N+](=O)[O-]` [Example 196, 3-(1,1-Dioxo-1,4-dihydro-1-benzo[1,2,4]thiadiazin-3-yl)-4-hydroxy-1-(2-nitro-benzyl)-1H-quinolin-2-one], the pIC50 is < 5.00.

The test is the same for the next values; noted with them: screening rate of 10 uM.
On to `CC(C)CCn1c(=O)c(C2=Nc3ccccc3S(=O)(=O)N2)c(O)c2ccc([N+](=O)[O-])cc21` [Example 198, 3-(1,1-Dioxo-1,2-dihydrobenzo[1,2,4]thiadiazin-3-yl)-4-hydroxy-1-(3-methylbutyl)-7-nitro-1H-quinolin-2-one], for which the “biological activity at the screening rate of 10 uM” value (from here on “biological activity”) is “did not demonstrate biological activity”.
Consider `CC(C)CCn1c(=O)c(C2=Nc3ccccc3S(=O)(=O)N2)c(O)c2ccc(Cl)cc21` [Example 199, 7-Chloro-3-(1,1-dioxo-1,2-dihydrobenzo[1,2,4]thiadiazin-3-yl)-4-hydroxy-1-(3-methylbutyl)-H-quinolin-2-one], for which the “biological activity” value is “did not demonstrate biological activity”.
On the same count and under the same terms, with `NCCCCn1c(=O)c(C2=Nc3ccccc3S(=O)(=O)N2)c(O)c2ccccc21` [Example 200, 1-(4-Aminobutyl)-3-(1,1-dioxo-1,2-dihydrobenzo[1,2,4]thiadiazin-3-yl)-4-hydroxy-1-1H-quinolin-2-one] the entry was “did not demonstrate biological activity”; with `O=c1c(C2=Nc3ccccc3S(=O)(=O)N2)c(O)c2ccccc2n1-c1ccccc1` [Example 201, 3-(1,1-Dioxo-1,2-dihydrobenzo[1,2,4]thiadiazin-3-yl)-4-hydroxy-1-phenyl-1H-quinolin-2-one], “did not demonstrate biological activity”.
Consider `CC(C)CCn1c(=O)c(C2=NS(=O)(=O)c3c(Br)cccc3N2)c(O)c2ccccc21` [Example 203, 3-(8-Bromo-1,1-dioxo-1,4-dihydro-1-benzo[1,2,4]thiadiazin-3-yl)-4-hydroxy-1-(3-methylbutyl)-1H-quinolin-2-one], for which the “biological activity” value is listed as “did not demonstrate biological activity”.
Same read-out and setting: with `CC(C)CCn1c(=O)c(C2=NS(=O)(=O)c3ccccc3N2)c(O)c2ccc(/C=C/C(N)=O)cc21` [Example 204, (E)-3-[3-(1,1-Dioxo-1,4-dihydro-1-benzo[1,2,4]thiadiazin-3-yl)-4-hydroxy-1-(3-methylbutyl)-2-oxo-1,2-dihydro-quinolin-7-yl]acrylamide] the entry was “did not demonstrate biological activity”; with `CC(C)CCOc1ccc2c(c1)c(O)c(C1=NS(=O)(=O)c3ccccc3N1)c(=O)n2CC(=O)OC(C)(C)C` [Example 205, [3-(1,1-Dioxo-1,4-dihydro-1-benzo[1,2,4]thiadiazin-3-yl)-4-hydroxy-6-(3-methyl-butoxy)-2-oxo-2H-quinolin-1-yl]acetic acid tert-butyl ester], “did not demonstrate biological activity”; with `CC(C)CCn1c(=O)c(C2=NS(=O)(=O)c3ccccc3N2)c(O)c2cc(C(=O)N(C)C)ccc21` [Example 206, 3-(1,1-Dioxo-1,4-dihydro-1-benzo[1,2,4]thiadiazin-3-yl)-4-hydroxy-1-(3-methylbutyl)-2-oxo-1,2-dihydro-quinoline-6-carboxylic acid dimethylamide], “did not demonstrate biological activity”.
As for `O=c1c(C2=NS(=O)(=O)c3ccccc3N2)c(O)c2ccccc2n1CCN1CCCC1` [Example 207, 3-(1,1-Dioxo-1,4-dihydro-1-benzo[1,2,4]thiadiazin-3-yl)-4-hydroxy-1-(2-pyrrolidin-1-yl-ethyl)-1H-quinolin-2-one], the “biological activity” value was “did not demonstrate biological activity”.
With `CC(C)(C)c1ccc(Cn2c(=O)c(C3=NS(=O)(=O)c4ccccc4N3)c(O)c3ccccc32)cc1` [Example 208, 1-(4-tert-Butylbenzyl)-3-(1,1-dioxo-1,4-dihydro-1-benzo[1,2,4]thiadiazin-3-yl)-4-hydroxy-1H-quinolin-2-one], the “biological activity” value was “did not demonstrate biological activity”.
